Consider 1 molecule from PMC5844530, “Fosmetpantotenate (RE-024), a phosphopantothenate replacement therapy for pantothenate kinase-associated neurodegeneration: Mechanism of action and efficacy in nonclinical models” (PLoS ONE, 2018).

Values joined by “and” are separate entries in the source; they are usually repeats but may differ in a detail not shown here. Equal entries are not always repeated.

Data set [1] can be described thus: Metabolic stability in rat whole blood. It is filed as in vitro ADME. The note with it: for Percentage Remaining: rat whole blood, replicates 1 and 2, listed as Fosmetpantotenate Total. As for the experimental part:
Metabolic stability in blood and liver microsomes: Fosmetpantotenate or its individual diastereomers (5 μM, n = 2, 37°C) were incubated in mouse, rat, cynomolgus monkey, and human whole blood. Samples (50 μL) were taken at 0, 5, 15, 30, and 60 min. Incubations of fosmetpantotenate or its individual diastereomers (1 μM, n = 2, 37°C) in pooled liver microsomes (0.25 mg protein/mL in 0.1 M phosphate buffer pH 7.4) were initiated with the addition of nicotinamide adenine dinucleotide phosphate (NADPH; 1 mM). Aliquots (100 μL) were obtained at 0, 5, 10, 20, and 40 min and added to 150 μL of 0.1% formic acid in acetonitrile-containing carbamazepine (0.5 μM) as an analytical internal standard, centrifuged, and the supernatants analyzed by LC-MS/MS.
Bioanalysis for determinations of analyte stability: Samples were analyzed using a benchtop tandem quadrupole detector (TQD) mass spectrometer (Waters Ltd, Centennial Park, Hertfordshire). […] Suitable retention and peak shape with separation of the 2 diastereomers were obtained. The chromatography column was a Phenomenex-Kinetex XB C18 (2.10 x 50 mm; 2.6 μm), with a 0.7 mL/min flow rate and a 2 μL injection volume. […] The gradient was initiated with 20% B and increased linearly, reaching 40% B at 0.6 min, followed by 50% B at 0.8 min and by 95% B at 0.9 min. Conditions were kept isocratic through 1.2 min, returned to starting conditions (20% B) at 1.25 min, and maintained at 20% B through 1.5 min before the next injection. Since fosmetpantotenate is a mixture of diastereomers which are resolved chromatographically, the fosmetpantotenate MRM area corresponds to the sum of the MRM areas of the individual diastereomers.
The percent of compound remaining was determined from the MRM area response in each sample relative to that in the T = 0 samples (normalized for internal standard). Natural log plots of the percent compound remaining over time were used to determine the t½ of compound disappearance using the relationship t½ = -0.693/λ, where λ is the slope of the natural logarithm of the percent compound remaining vs time curve.

In another data set the test system is liver and brain CoA. As to the kind of experiment: Labeled experiments: incorporation of isotopically labeled fosmetpantotenate into CoA. It is filed as in vivo, mouse. The note with it: 125 μg intrastriatally; 6 h. The source says:
Fosmetpantotenate was labeled with three ^13C and one ^15N in the PA moiety and with one ^18O in the phosphate moiety, as indicated in Fig 10. The premise of this experiment is the following: if PPA incorporated into CoA originates from fosmetpantotenate metabolism, then all isotope labels (including the ^18O) will be retained in the CoA molecule, resulting in an increase in molecular weight of 6 atomic mass units (AMU) with respect to unlabeled CoA ([M+H]^+ = 774.3 vs 768.3, respectively; Fig 10, Path A). However, if fosmetpantotenate is hydrolyzed to PA, and PA is then re-phosphorylated by WT PanK to yield PPA, or if the ^18O is exchanged with water, then the ^18O would be lost in the process, resulting in a CoA molecule with a 4-AMU increase in molecular weight over unlabeled CoA ([M+H]^+ = 772.3 vs 768.3, respectively, […], Path B). CoA derived from endogenous PA/PPA will have the unchanged molecular weight ([M+H]^+ = 768.3).
Animal phase: C57BL6N mice, 8-week old and 19 to 21 g obtained from Charles River (Como, Italy) were used in these studies. One group of mice (N = 3 per time point) received a single oral dose of 500 mg/kg isotopically labeled fosmetpantotenate dissolved in 20% hydroxypropyl-β-cyclodextrin. Another set of mice (N = 8 per time point) received a direct administration of isotopically labeled fosmetpantotenate at 125 μg (25 mg/mL of aCSF containing 147 mM NaCl, 3.0 mM KCl, 1.2 mM CaCl2, and 1.2 mM MgCl2) via cannula into striatum. Brain, liver, and blood samples were collected at pre-dose, 6 h, 12 h (brain only), and 24 h, and were snap frozen in liquid nitrogen.
Two additional groups of mice (N = 6 per time point for each group) received 3 daily doses (8 am, 2 pm, and 8 pm to mimic an anticipated human dosing schedule) of isotopically labeled fosmetpantotenate at either 1.25 μg (0.625 mg/mL aCSF) or 12.5 μg (6.25 mg/mL aCSF) via ICV infusion cannula (2 μL), for up to 10 consecutive days. Brain (striatum) samples were collected at pre-dose, and at 12 h following the third dose on days 1, 3, 7, and 10, and were snap frozen in liquid nitrogen.
Sample processing: Brain (striatum) and liver tissues were homogenized in a Precellys homogenizer (Bertin technologies, Montigny-le-Bretonneux, France) with 3 volumes of water for each volume of tissue (1:4 dilution). Protein was precipitated by adding 500 μL methanol to 100 μL of homogenate (1:6 dilution), mixed well, and centrifuged. Blood cells (1 volume) were treated with 1:8 v:v water:methanol (1:10 dilution), mixed, and centrifuged. The supernatants (200 μL for brain and blood cells and 100 μL for liver) were dried under nitrogen, reconstituted with 100 μL ammonium acetate 10 mM (pH ~5), and injected (10 μL) into the LC for high resolution mass spectrometry (HRMS) analyses.
CoA determination: An Acquity UPLC (Waters) system was used. Samples were chromatographed on a Luna C18 column (50 x 2.0 mm; 5 μm), with a 0.4 mL/min flow rate and a 10 μL injection volume. The mobile phases were (A), 10 mM ammonium acetate in water, pH 6.8 and (B) acetonitrile:2-propanol (9:1; v:v). The gradient was started with 2% (B) and was increased linearly to reach 20% (B) at 5 min; the gradient was ramped to reach 90% (B) at 5.1 min and kept isocratic at 90% (B) through 7.1 min.
The detector was a Waters QTOF Synapt mass spectrometer, with an electrospray ion source operating in the positive scanning mode acquiring in full scan mode (accuracy <5 ppm). The following exact masses were determined: 768.1230 for CoA, 772.1301 for CoA +4 AMU, and 774.1344 for CoA +6 AMU.
The CoA levels obtained by MS/MS analyses were corrected for ^18O isotopic incorporation. CoA levels were not adjusted for the 1% and 2% of ^12C and ^14N, respectively, in the labeled fosmetpantotenate. […]

Take `COC(=O)CCNC(=O)[C@H](O)C(C)(C)COP(=O)(N[C@@H](C)C(=O)OC)Oc1ccccc1` (mixture of isomers) [Fosmetpantotenate]: the half-life at 5 μM in data set [1] (rat blood, 5 μM, 37°C, 60 min) was < 5 min. Also, the “Percentage Remaining” value in data set [1] (5 min) was 6% and 1%; in data set [1] (15 min) it was 0% and 8%; in data set [1] (60 min), 0%. For the same molecule, the “Brain CoA (%) +6 AMU” value in the data set with liver and brain CoA came to 36.2%.
